{
  "source": "patent US20090274676A1",
  "about": "“COMBINATION OF DEHYDROEPIANDROSTERONE OR DEHYDROEPIANDROSTERONE-SULFATE WITH A PDE-4 INHIBITOR FOR TREATMENT OF ASTHMA OR CHRONIC OBSTRUCTIVE PULMONARY DISEASE” (priority 2003, published 2009)",
  "format_in_all_cases": "physicochemical",
  "key": {"[1]": {"assay": "Particle size of jet-milled / spray-dried anhydrous DHEA-S (Malvern Mastersizer X, light microscope)", "settings": "for Mean particle size: spray dried, two batches", "method": "Approximately 1 g sample was passed through the jet mill, once, and approximately 2 g sample were passed through the jet mill twice. […] The resulting solution was sonicated for 3 minutes and appeared fully dispersed. The dispersed solutions were tested on a Malvern Mastersizer X with a small volume sampler (SVS) attachment. One sample of dispersed material was tested 5 times. The median particle size or D (v, 0.5) of unmilled material was 52.56 μm and the % RSD (relative standard deviation) was 7.61 for the 5 values. The D (v, 0.5) for a single pass through the jet mill was 3.90 μm and the % RSD was 1.27, and the D (v, 0.5) from a double pass through the jet mill 3.25 μm and the % RSD was 3.10.\nThe solution was spray-dried with a B-191 Mini Spray-Drier (Buchi, Flawil, Switzerland) with an inlet temperature of 55° C., outlet temperature of 40° C., at 100% aspirator, at 10% pump, nitrogen flow at 40 mbar and spray flow at 600 units. The spray-dried product was suspended in hexane and Span85 surfactant added to reduce agglomeration. The dispersions were sonicated with cooling for 3-5 minutes for complete dispersion and the dispersed solutions tested on a Malvern Mastersizer X with a Small Volume Sampler (SVS) attachment. […] Visual examination by light microscope of the dispersions of each batch confirmed that spray drying produced small respirable size particles. The mean particle size was 2.4 μm and 2.0 μm for each batch, respectively."}, "[2]": {"assay": "Emitted dose studies with dry powder inhalers", "settings": "for Emitted Dose (%): single runs", "method": "DHEA-S powder was collected in Nephele tubes and assayed by HPLC. Triplicate experiments were performed at each airflow rate for each of the three dry powder inhalers tested (Rotahaler, Diskhaler and IDL's DPI devices). A Nephele tube was fitted at one end with a glass filter (Gelman Sciences, Type A/E, […]), which in turn was connected to the airflow line to collect the emitted dose of the drug from the respective dry powder inhaler being tested. A silicone adapter, with an opening to receive the mouthpiece of the respective dry powder inhaler being tested at the other end of the Nephele tube was secured. A desired airflow, of 30, 60, or 90 L/min, was achieved through the Nephele tube. Each dry powder inhaler's mouthpiece was inserted then into the silicone rubber adapter, and the airflow was continued for about four s after which the tube was removed and an end-cap screwed onto the end of each tube. The end-cap of the tube not containing the filter was removed and 10 ml of an HPLC grade water-acetonitrile solution (1:1) added to the tube, the end-cap reattached, and the tube shaken for 1-2 minutes. The end-cap then was removed from the tube and the solution was transferred to a 10 ml plastic syringe fitted with a filter (Cameo 13N Syringe Filter, Nylon, 0.22 μm). An aliquot of the solution was directly filtered into an HPLC vial for later drug assay via HPLC. […] When the micronized DHEA-S (only vial B used), was weighed for placement into the gelatin capsule or blister, there appeared to be a few aggregates of the micronized powder. […] Table 2 summarizes the results for the Rotahaler experiments at 3 different flow rates, for the Diskhaler experiments at 3 different flow rates, and of the multi-dose experiments at 3 different flow rates."}, "[3]": {"assay": "Aerosolization of neat DHEA-S dihydrate, Acu-Breathe single-dose inhaler, fine particle fraction", "settings": "30 L/min, IDL data", "from_the_text": "The single-dose Acu-Breathe device is used for evaluating DHEA-S.dihydrate. […] These blisters are actuated into the Andersen 8-stage cascade impactor at flow rates ranging from 30 to 75 L/min with a glass twin-impinger throat. Stages 1-5 of the Andersen impactor are rinsed together to obtain an estimate of the fine particle fraction. Pooling the drug collected from multiple stages into one assay make the method much more sensitive. […] Using a carrier with a larger particle size typically improves the aerosol properties of micronized drug substances."}, "[4]": {"assay": "Solid-state stability with and without lactose at 50° C. (HPLC, DHEA formation)", "from_the_text": "These conditions were used to stress the formulation in order to predict its long-term stability results. […] The primary degradant is DHEA. […] The materials on accelerated storage become more cohesive with time as evidenced by clumping during sample weighing for chemical analysis. […] This is a considerable disadvantage since lactose is the most commonly used inhalation excipient for dry powder formulations. Continuing with the virtually anhydrous form would mean limiting formulations to neat powder or undertaking more comprehensive safety studies to use a novel excipient."}, "[5]": {"settings": "Diskhaler (2nd study), 87.8 L/min"}, "[6]": {"settings": "IDL Multi-Dose (2nd study), 87.8 L/min"}},
  "note": "“And” between values parts separate entries of the source, which are not always exact repeats. Equal entries are not always repeated.",
  "data": [
    {"smiles": "C[C@]12CC[C@H](OS(=O)(=O)[O-])CC1=CC[C@@H]1[C@@H]2CC[C@]2(C)C(=O)CC[C@@H]12.[Na+]", "note": "[Anhydrous DHEA-S]", "values": [
      {"measurement": "Median particle size D (v, 0.5)", "setting": "[1]; double pass through the jet mill", "result": 3.25, "unit": "μm"},
      {"measurement": "Median particle size D (v, 0.5)", "setting": "[1]; single pass through the jet mill", "result": 3.90, "unit": "μm"},
      {"measurement": "Mean particle size", "setting": "[1]; Malvern Mastersizer X", "result": "5.07±0.70 μm and 6.66±0.91 μm"},
      {"measurement": "Mean particle size", "setting": "[1]; visual examination by light microscope", "result": "2.4 μm and 2.0 μm"},
      {"measurement": "Median particle size D (v, 0.5)", "setting": "[1]; unmilled material", "result": 52.56, "unit": "μm"},
      {"measurement": "Emitted Dose (%), Average", "setting": "[2]; [5]", "result": 59.1, "unit": "%"},
      {"measurement": "Emitted Dose (%)", "setting": "[2]; [5]", "result": "57.9% and 59.9% and 59.5%"},
      {"measurement": "Emitted Dose (%), Average", "setting": "[2]; Diskhaler, 30 L/min", "result": 58.6, "unit": "%"},
      {"measurement": "Emitted Dose (%)", "setting": "[2]; Diskhaler, 30 L/min", "result": "53.8% and 53.4% and 68.7%"},
      {"measurement": "Emitted Dose (%), Average", "setting": "[2]; Diskhaler, 60 L/min", "result": 68.2, "unit": "%"},
      {"measurement": "Emitted Dose (%)", "setting": "[2]; Diskhaler, 60 L/min", "result": "63.4% and 38.9% and 58.0%"},
      {"measurement": "Emitted Dose (%), Average", "setting": "[2]; Diskhaler, 87.8 L/min", "result": 51.3, "unit": "%"},
      {"measurement": "Emitted Dose (%)", "setting": "[2]; Diskhaler, 87.8 L/min", "result": "65.7% and 41.6% and 46.5%"},
      {"measurement": "Emitted Dose (%), Average", "setting": "[2]; [6]", "result": 84.8, "unit": "%"},
      {"measurement": "Emitted Dose (%)", "setting": "[2]; [6]", "result": "85.7% and 84.6% and 84.0%"},
      {"measurement": "Emitted Dose (%), Average", "setting": "[2]; IDL Multi-Dose, 30 L/min", "result": 85.4, "unit": "%"},
      {"measurement": "Emitted Dose (%)", "setting": "[2]; IDL Multi-Dose, 30 L/min", "result": "78.9% and 88.2% and 89.2%"},
      {"measurement": "Emitted Dose (%), Average", "setting": "[2]; IDL Multi-Dose, 60 L/min", "result": 84.0, "unit": "%"},
      {"measurement": "Emitted Dose (%)", "setting": "[2]; IDL Multi-Dose, 60 L/min", "result": "78.8% and 83.7% and 89.6%"},
      {"measurement": "Emitted Dose (%), Average", "setting": "[2]; IDL Multi-Dose, 87.8 L/min", "result": 72.6, "unit": "%"},
      {"measurement": "Emitted Dose (%)", "setting": "[2]; IDL Multi-Dose, 87.8 L/min", "result": "71.3% and 79.0% and 67.4%"},
      {"measurement": "Emitted Dose (%), Average", "setting": "[2]; Rotahaler (2nd study), 87.8 L/min", "result": 31.5, "unit": "%"},
      {"measurement": "Emitted Dose (%), Average", "setting": "[2]; Rotahaler, 30 L/min", "result": 34.7, "unit": "%"},
      {"measurement": "Emitted Dose (%), Average", "setting": "[2]; Rotahaler, 60 L/min", "result": 57.3, "unit": "%"},
      {"measurement": "Emitted Dose (%)", "setting": "[2]; Rotahaler, 60 L/min", "result": "58.1% and 68.2% and 45.7%"},
      {"measurement": "Emitted Dose (%), Average", "setting": "[2]; Rotahaler, 87.8 L/min", "result": 69.7, "unit": "%"},
      {"measurement": "Emitted Dose (%)", "setting": "[2]; Rotahaler, 87.8 L/min", "result": "73.2% and 67.1% and 68.7%"},
      {"measurement": "Fine particle fraction (mass entering the impactor)", "setting": "[3]", "result": "no detectable mass entered the impactor"},
      {"measurement": "DHEA % formed", "setting": "[4]; 50° C., 1 week", "result": 9.817, "unit": "%"},
      {"measurement": "DHEA % formed", "setting": "[4]; 50° C., 2 weeks", "result": 14.954, "unit": "%"},
      {"measurement": "DHEA % formed", "setting": "[4]; 50° C., 4 weeks", "result": 20.171, "unit": "%"},
      {"measurement": "DHEA % formed", "setting": "[4]; Control, initial (Time=0)", "result": 2.774, "unit": "%"},
      {"measurement": "DHEA % formed", "setting": "[4]; Control, sealed, 25° C., 1 week", "result": 2.694, "unit": "%"},
      {"measurement": "DHEA % formed", "setting": "[4]; Control, sealed, 25° C., 2 weeks", "result": 2.370, "unit": "%"},
      {"measurement": "DHEA % formed", "setting": "[4]; Control, sealed, 25° C., 4 weeks", "result": 2.666, "unit": "%"}
    ]}
  ]
}
